Measured values: US9717737B2, “Vacuolin-1 as an inhibitor of autophagy and endosomal trafficking and the use thereof for inhibiting tumor progression” (The University of Hong Kong, priority 2014, dated 2017)

Tested on: RFP-GFP-LC3 expressing HeLa cells
Test: RFP-GFP-LC3 (tfLC3) fluorescence image-based autophagy assay
Format: cell-based
Text: Prompted by the fact that many available autophagy chemical modulators lack either potency or specificity (Kimura et al., 2013), a fluorescence image-based assay was set up to screen small molecules affecting autophagy. HeLa cells, an autophagy competent cell line, were infected with lentiviruses carrying expression cassettes that encode RFP-GFP-LC3 (tfLC3) (Kimura et al., 2007). Thus, the LC3-II positive autophagosomes are labeled with both GFP and RFP signals shown as yellow puncta, and after fusion with lysosomes, autolysosomes are shown as red only puncta because GFP loses its fluorescence in acidic pH.
Next, a panel of small chemicals that are commercially available and have been previously shown to affect vesicle trafficking or organelle morphology were selected and screened for their effects on autophagy regulation in tfLC3 expressing HeLa cells (data not shown).

## CCN(CC)CCCC(C)Nc1ccnc2cc(Cl)ccc12 (centres unmarked) [CQ, Chloroquine]
  LC3 puncta (yellow = autophagosomes, red only = autolysosomes): markedly induced the accumulation of yellow puncta only

## CO/C1=C\C(C)=C\[C@@H](C)[C@@H](O)[C@@H](C)C/C(C)=C/C=C/[C@H](OC)[C@@H]([C@@H](C)[C@@H](O)[C@H](C)[C@@]2(O)C[C@@H](O)[C@H](C)[C@@H](C(C)C)O2)OC1=O [bafilomycin, Bafilomycin A1]
  LC3 puncta (yellow = autophagosomes, red only = autolysosomes): markedly induced the accumulation of yellow puncta only
